The values that follow come from EPA's ToxRefDB 2.

SMILES strings stand for the structures.

Data set [1] relates to mouse. The note with it: Subchronic oral toxicity in rodents, b6c3f1, Feed, dose end: 14 week, group: systemic.
The subject of data set [2] is mouse. The settings on record: Carcinogenicity; b6c3f1; Oral; Feed; dose end: 105 week; group: systemic; systemic / in life observation / body weight / body weight + systemic / pathology microscopic / kidney / mineralization + systemic / ….
Data set [3] relates to rat. The note with it: Carcinogenicity, fischer, Oral, Feed, dose end: 105 week, group: systemic.
For data set [4], the system named is rat. The settings on record: Subchronic oral toxicity in rodents, sprague dawley, Water, dose end: 13 week, group: systemic.
For data set [5], the system named is rat. The settings on record: Subchronic oral toxicity in rodents, fischer, Water, dose end: 14 week, group: systemic.
Data set [6] concerns rat. The note with it: Reproduction/developmental toxicity screening test; sprague dawley; Oral; Water; dose end: 1 PND; group: parental; systemic / in life observation / water consumption / water consumption.
In data set [7] the test system is rat. The note with it: Subchronic oral toxicity in rodents, other, Gavage/Intubation, dose end: 90 day, group: systemic.
Data set [8] has as its system mouse. The note with it: Combined chronic toxicity/carcinogenicity, b6c3f1, Oral, Water, dose end: 105 week, group: systemic.
Data set [9] relates to rat. The settings on record: Combined chronic toxicity/carcinogenicity, fischer, Oral, Water, dose end: 105 week, group: systemic.
Data set [10] deals with rat. The settings on record: Reproduction/developmental toxicity screening test, sprague dawley, Oral, Water, dose end: 1 generation, group: parental.
For data set [11], the system named is mouse. The note with it: Subchronic oral toxicity in rodents, b6c3f1, Water, dose end: 14 week, group: systemic.
The test system of data set [12] is dog. The settings on record: Subchronic oral toxicity in nonrodent, beagle, Capsule, dose end: 90 day, group: systemic.
For data set [13], the system named is rat. The settings on record: Subchronic oral toxicity in rodents, sprague dawley, Feed, dose end: 3 month, group: systemic.
The test system of data set [14] is rat. The note with it: Prenatal developmental toxicity study, other, Oral, Gavage/Intubation, dose end: 15 GD.
Data set [15] deals with dog. The settings on record: Subchronic oral toxicity in nonrodent, beagle, Capsule, dose end: 90 day, group: systemic. This is another data set of the same source.
Data set [16] deals with rat. The settings on record: Combined chronic toxicity/carcinogenicity, sprague dawley, Oral, Feed, dose end: 104 week, group: systemic.
In data set [17] the test system is rat. The settings on record: Multigenerational reproductive toxicity study, sprague dawley, Oral, Feed, dose end: 2 generation.
The test system of data set [18] is mouse. The settings on record: Carcinogenicity, cd1, Oral, Feed, dose end: 78 week, group: systemic.
Data set [19] concerns dog. The settings on record: Chronic toxicity, beagle, Oral, Capsule, dose end: 52 week, group: systemic.
The mark [20] stands for this setting: systemic / organ weight / liver / absolute + systemic / organ weight / liver / relative to body weight + systemic / pathology microscopic / ….
[21] abbreviates: systemic / pathology microscopic / kidney / hyperplasia + systemic / pathology microscopic / liver / hyperplasia + systemic / pathology ….
[22] abbreviates: systemic / pathology gross / thyroid gland / enlarged + systemic / pathology microscopic / thyroid gland / cellular alteration.
[23] abbreviates: systemic / pathology gross / thyroid gland / enlarged + systemic / pathology microscopic / thyroid gland / cellular alteration + systemic / ….
[24] abbreviates: systemic / clinical chemistry / alanine aminotransferase (alt/sgpt) / alanine aminotransferase (alt/sgpt) + systemic / clinical chemistry / ….
Where [25] appears, read: systemic / pathology gross / sperm measure / sperm motility.
[26] abbreviates: systemic / organ weight / thymus / absolute + systemic / organ weight / thymus / relative to body weight + systemic / organ weight / thymus….
Where [27] appears, read: systemic / in life observation / water consumption / water consumption.
The mark [28] stands for this setting: systemic / pathology microscopic / esophagus / hyperkeratosis + systemic / pathology microscopic / oral mucosa / [other] + systemic / ….
[29] abbreviates: systemic / in life observation / food consumption / food consumption + systemic / in life observation / water consumption / water ….
Setting [30] is: systemic / in life observation / water consumption / water consumption + systemic / pathology gross / sperm measure / sperm motility.
The mark [31] stands for this setting: systemic / clinical chemistry / alkaline phosphatase (alp/alk) / alkaline phosphatase (alp/alk) + systemic / clinical chemistry / calcium / ….
Setting [32] is: systemic / clinical chemistry / cholesterol / cholesterol + systemic / clinical chemistry / lipids / phospholipids + systemic / hematology….
The mark [33] stands for this setting: systemic / hematology / platelet / platelet + systemic / clinical chemistry / triglycerides / triglycerides + systemic / clinical chemistry….
The mark [34] stands for this setting: group: developmental, developmental / developmental malformation / bone / full supernumerary.
[35] abbreviates: group: maternal, systemic / in life observation / body weight / body weight gain.
Setting [36] is: systemic / clinical chemistry / alkaline phosphatase (alp/alk) / alkaline phosphatase (alp/alk) + systemic / organ weight / liver / absolute….
Where [37] appears, read: systemic / in life observation / body weight / body weight gain + systemic / pathology microscopic / liver / hypertrophy + systemic / ….
Where [38] appears, read: group: offspring, systemic / in life observation / body weight / offspring (pup) weight.
[39] abbreviates: group: parental, systemic / in life observation / body weight / body weight + systemic / in life observation / food consumption / food consumption + systemic….
[40] abbreviates: systemic / organ weight / liver / absolute + systemic / organ weight / liver / relative to body weight + systemic / clinical chemistry / ….

`O=C(c1ccccc1)c1ccccc1` [Benzophenone]: the lowest observed adverse effect level (LOAEL) (as a rule, the lowest dose or exposure tested at which an adverse effect was seen) in [1] (systemic / clinical chemistry / bile acids / bile acids + systemic / clinical chemistry / sorbitol dehydrogenase / sorbitol dehydrogenase + …) was 404 mg/kg/day; in data set [2] it was 70 mg/kg/day; in [3] (systemic / in life observation / body weight / body weight + systemic / pathology microscopic / kidney / hyperplasia + systemic / pathology …) it was 30 mg/kg/day. Moreover, the LEL was 200 mg/kg/day in data set [1] (setting [20]), 35 mg/kg/day in [2] and 15 mg/kg/day in [3] (setting [21]). Further, the figures for the NEL in data set [1] (setting [20]), in [2] and in data set [3] (setting [21]) were less than 200 mg/kg/day, less than 35 mg/kg/day and less than 15 mg/kg/day, respectively.

Regarding `N#CC(Br)Br` [Dibromoacetonitrile], the LEL in [4] (setting [22]) came to 0.005 mg/kg/day; in data set [5] (setting [25]), 3 mg/kg/day; in [6] it was 5.3 mg/kg/day; in data set [7] (systemic / clinical chemistry / albumin / albumin), 23 mg/kg/day; in data set [8] (setting [27]), 3 mg/kg/day; in [9] (systemic / pathology microscopic / esophagus / hyperkeratosis + systemic / pathology microscopic / oral mucosa / [other] + systemic / in …) it was 4 mg/kg/day. Besides, the LEL in data set [10] (setting [27]) was 3.3 mg/kg/day; in data set [11] (setting [25]), 2 mg/kg/day. Further, the NEL was less than 0.005 mg/kg/day in data set [4] (setting [22]); 2 mg/kg/day in data set [5] (setting [24]); 1.9 mg/kg/day in data set [6]; 6 mg/kg/day in data set [7] (systemic / clinical chemistry / albumin / albumin + systemic / clinical chemistry / globulins / globulins + systemic / clinical chemistry / …); less than 3 mg/kg/day in [8] (setting [27]); 2 mg/kg/day in [9] (setting [28]). Besides, the NEL was 1.4 mg/kg/day in data set [10] (setting [29]) and less than 2 mg/kg/day in data set [11] (setting [25]). In addition, the LOAEL in data set [4] (setting [23]) was more than 5 mg/kg/day; in data set [5] (setting [24]), more than 11 mg/kg/day; in [6], more than 10.8 mg/kg/day; in data set [7] (setting [26]), more than 45 mg/kg/day; in data set [8] (systemic / in life observation / body weight / body weight), 11 mg/kg/day; in [9] (systemic / pathology microscopic / esophagus / hyperkeratosis) it was 4 mg/kg/day. Besides, the LOAEL in [10] (setting [29]) was more than 8.2 mg/kg/day; in [11] (setting [30]), more than 18 mg/kg/day. Further, the NOAEL (in general, the highest dose or exposure tested at which no adverse effect was seen) is not below 5 mg/kg/day in [4] (setting [23]); not below 11 mg/kg/day in data set [5] (setting [24]); not below 10.8 mg/kg/day in data set [6]; not below 45 mg/kg/day in data set [7] (setting [26]); 6 mg/kg/day in [8] (systemic / in life observation / body weight / body weight + systemic / pathology microscopic / stomach / squamous cell papilloma + systemic…); 2 mg/kg/day in data set [9] (setting [28]). Besides, the NOAEL in [10] (setting [29]) is not below 8.2 mg/kg/day; in data set [11] (setting [30]), not below 18 mg/kg/day.

Turning to `O=[N+]([O-])[O-].[Ag+]` [Silver nitrate], in data set [12] (setting [31]), the lowest-observed-adverse-effect level (LOAEL) turned out to be 250 mg/kg/day, the NEL worked out at 10 mg/kg/day and the NOAEL turned out to be 50 mg/kg/day. Also, in data set [12] (systemic / in life observation / clinical signs / headflicking + systemic / in life observation / clinical signs / salivation + systemic / …), the LEL is 50 mg/kg/day.

For `CC(C)(C)[C@H](O)/C(=C\c1ccc(Cl)cc1)n1cncn1` [Uniconazole-P], the LOAEL was determined as 100 mg/kg/day in [13] (setting [32]); 25 mg/kg/day in [14] (setting [34]); 25 mg/kg/day in [14] (setting [35]); 20 mg/kg/day in [15] (setting [36]); 39.4 mg/kg/day in [16] (setting [37]); 75 mg/kg/day in [17] (setting [38]). The LOAEL was found to be 75 mg/kg/day in data set [17] (setting [39]), 225 mg/kg/day in data set [18] (systemic / pathology microscopic / liver / hypertrophy + systemic / pathology microscopic / liver / inflammation + systemic / pathology …) and 20 mg/kg/day in data set [19] (systemic / organ weight / liver / absolute + systemic / organ weight / liver / relative to body weight). The NOAEL in data set [13] (setting [32]) is 10 mg/kg/day; in data set [14] (setting [34]), 5 mg/kg/day; in data set [14] (setting [35]) it was 5 mg/kg/day; in data set [15] (setting [31]), 5 mg/kg/day; in [16] (setting [37]) it was 7.78 mg/kg/day; in data set [17] (setting [38]), 7.5 mg/kg/day. For the same molecule, the NOAEL in [17] (setting [39]) was determined as 7.5 mg/kg/day; in data set [18] (systemic / pathology microscopic / liver / hypertrophy + systemic / pathology microscopic / liver / necrosis + systemic / pathology …) it was 30 mg/kg/day; in [19] (setting [40]) it was 2 mg/kg/day. The LEL in data set [13] (setting [33]) amounted to 3 mg/kg/day; in [14] (setting [34]), 25 mg/kg/day; in [14] (setting [35]), 25 mg/kg/day; in [15] (setting [36]), 20 mg/kg/day; in data set [16] (systemic / pathology microscopic / liver / hypertrophy + systemic / pathology microscopic / liver / vacuolization), 7.78 mg/kg/day; in data set [17] (setting [38]), 75 mg/kg/day. Moreover, the LEL in data set [17] (group: parental, systemic / organ weight / liver / nos) amounted to 7.5 mg/kg/day; in [19] (setting [40]) it was 20 mg/kg/day. The NEL was less than 3 mg/kg/day in [13] (setting [33]); 5 mg/kg/day in data set [14] (setting [34]); 5 mg/kg/day in data set [14] (setting [35]); 5 mg/kg/day in data set [15] (setting [31]); 1.48 mg/kg/day in data set [16] (systemic / pathology microscopic / liver / hypertrophy + systemic / pathology microscopic / liver / vacuolization + systemic / in life …); 7.5 mg/kg/day in data set [17] (setting [38]). Also, the NEL in data set [17] (setting [39]) turned out to be 0.75 mg/kg/day; in data set [18] (systemic / pathology microscopic / liver / adenoma + systemic / pathology microscopic / liver / adenoma/carcinoma combined + systemic / in …) it was 225 mg/kg/day; in data set [19] (systemic / clinical chemistry / alkaline phosphatase (alp/alk) / alkaline phosphatase (alp/alk) + systemic / organ weight / thymus / …), 2 mg/kg/day.
